Reference: patent US9663473B2 (Actelion Pharmaceuticals Ltd, priority 2013, dated 2017)
Structures can show the parent of a compound that is named as a salt.

Target: T1, recombinant human ALX receptor (Homo sapiens, UniProt P25090)
T1 construct: expressed in transfected cells; host or cells: HEK293 (HEK293-hALXR-Gα16)
T1 sequence (P25090 1-351): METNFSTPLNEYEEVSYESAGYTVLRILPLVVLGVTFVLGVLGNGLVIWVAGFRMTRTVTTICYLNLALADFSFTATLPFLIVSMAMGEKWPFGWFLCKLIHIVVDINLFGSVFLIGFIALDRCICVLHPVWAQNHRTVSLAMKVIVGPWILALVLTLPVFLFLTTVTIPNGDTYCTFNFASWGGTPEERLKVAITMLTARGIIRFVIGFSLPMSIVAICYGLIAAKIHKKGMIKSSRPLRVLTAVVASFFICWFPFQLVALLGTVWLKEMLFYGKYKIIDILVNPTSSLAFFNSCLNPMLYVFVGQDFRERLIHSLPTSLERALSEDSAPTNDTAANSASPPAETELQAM
Test: Intracellular calcium measurements (FLIPR), ALX receptor agonistic activity
Assay type: cell-based
Settings: HEK293-hALXR-Gα16 cells, Fluo-4 calcium signal, normalized to WKYMVm 10 nM
In short: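 HEK293 cells co-expressing human ALX receptor and Gα16 were loaded with 1 μM Fluo-4 AM for 60 min at 37° C., then exposed to serially diluted compounds on FLIPR Tetra. Peak fluorescence above baseline (ex 488/em 540 nm) was normalized to 10 nM WKYMVm as high control.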

Row | Molecule | EC50
1 | COc1ccc(C[C@@H](NC(=O)NCc2cccnc2N2CCOCC2)c2nc3ccccc3[nH]2)cc1 [Example 206, (R)-1-(1-(1H-Benzo[d]imidazol-2-yl)-2-(4-methoxyphenyl)ethyl)-3-((2-morpholinopyridin-3-yl)methyl)urea] | 144 nM
2 | COc1ccc(CC(NC(=O)NC23CCC(O)(CC2)CC3)c2nc3ccccc3[nH]2)cc1F (single isomer, unassigned; ent-1) [Example 257, 1-(1-(1H-Benzo[d]imidazol-2-yl)-2-(3-fluoro-4-methoxyphenyl)ethyl)-3-(4-hydroxybicyclo[2.2.2]octan-1-yl)urea (ent-1)] | 2 nM
3 | COc1ccc(C[C@@H](NC(=O)NCCC(N)=O)c2nc3ccccc3[nH]2)cc1 [Example 110, (R)-3-(3-(1-(1H-Benzo[d]imidazol-2-yl)-2-(4-methoxyphenyl)ethyl)ureido)propanamide] | 746 nM
4 | COc1ccc(C[C@@H](NC(=O)NCCN2CCN(C)CC2)c2nc3ccccc3[nH]2)cc1 [Example 151, (R)-1-(1-(1H-Benzo[d]imidazol-2-yl)-2-(4-methoxyphenyl)ethyl)-3-(2-(4-methylpiperazin-1-yl)ethyl)urea] | 572 nM
5 | COc1c(F)cc(CC(NC(=O)N[C@H]2CC[C@H](O)CC2)c2nc3ccccc3[nH]2)cc1F (relative stereo) [Example 241, 1-(1-(1H-Benzo[d]imidazol-2-yl)-2-(3,5-difluoro-4-methoxyphenyl)ethyl)-3-(trans-4-hydroxycyclohexyl)urea] | 138 nM
6 | COc1ccc(C[C@@H](NC(=O)NC2CCN(C(=O)OC(C)(C)C)C2)c2nc3ccccc3[nH]2)cc1 (stereo partly drawn) [Example 93, tert-butyl 3-(3-((R)-1-(1H-Benzo[d]imidazol-2-yl)-2-(4-methoxyphenyl)ethyl)ureido)pyrrolidine-1-carboxylate] | 16 nM
7 | COc1cc(F)c(CC(NC(=O)NC23CCC(O)(CC2)CC3)c2nc3ccc(F)cc3[nH]2)c(F)c1 (single isomer, unassigned; ent-2) [Example 373, 1-(2-(2,6-Difluoro-4-methoxyphenyl)-1-(6-fluoro-1H-benzo[d]imidazol-2-yl)ethyl)-3-(4-hydroxybicyclo[2.2.2]octan-1-yl)urea (ent-2)] | 107 nM
8 | COc1ccc(C[C@@H](NC(=O)NCCc2cccc(OC)c2)c2nc3ccccc3[nH]2)cc1 [Example 6, (R)-1-(1-(1H-Benzo[d]imidazol-2-yl)-2-(4-methoxyphenyl)ethyl)-3-(3-methoxyphenethyl)urea] | 378 nM
9 | COc1ccc(C[C@@H](NC(=O)NCc2ccccc2)c2nc3ccccc3[nH]2)cc1 [Example 392, (R)-1-(1-(1H-Benzo[d]imidazol-2-yl)-2-(4-methoxyphenyl)ethyl)-3-benzylurea] | 2410 nM
10 | COc1ccc(C[C@@H](NC(=O)NCc2ccccc2OCC(F)(F)F)c2nc3ccccc3[nH]2)cc1 [Example 219, (R)-1-(1-(1H-Benzo[d]imidazol-2-yl)-2-(4-methoxyphenyl)ethyl)-3-(2-(2,2,2-trifluoroethoxy)benzyl)urea] | 14 nM
11 | COc1ccc(C[C@@H](NC(=O)NCCC2CCNCC2)c2nc3ccccc3[nH]2)cc1 [Example 156, (R)-1-(1-(1H-Benzo[d]imidazol-2-yl)-2-(4-methoxyphenyl)ethyl)-3-(2-(piperidin-4-yl)ethyl)urea] | 94 nM
12 | COc1ccc(C[C@@H](NC(=O)N[C@H]2CC[C@H](O)CC2)c2nc3ccc(C#N)cc3[nH]2)cc1 [Example 152, 1-((R)-1-(6-Cyano-1H-benzo[d]imidazol-2-yl)-2-(4-methoxyphenyl)ethyl)-3-(trans-4-hydroxycyclohexyl)urea] | 6.2 nM
13 | COc1ccc(C[C@@H](NC(=O)NCC(c2ccccc2)N2CCOCC2)c2nc3ccccc3[nH]2)cc1 (stereo partly drawn) [Example 215, 1-((R)-1-(1H-Benzo[d]imidazol-2-yl)-2-(4-methoxyphenyl)ethyl)-3-(2-morpholino-2-phenylethyl)urea] | 8.9 nM
14 | COc1ccc(C[C@@H](NC(=O)NCc2ccccc2CN2CCOCC2)c2nc3ccccc3[nH]2)cc1 [Example 62, (R)-1-(1-(1H-Benzo[d]imidazol-2-yl)-2-(4-methoxyphenyl)ethyl)-3-(2-(morpholinomethyl)benzyl)urea dihydrochloride] | 48 nM
15 | COc1ccc(C[C@@H](NC(=O)NC[C@H](O)c2ccccc2)c2nc3ccccc3[nH]2)cc1 [Example 290, 1-((R)-1-(1H-Benzo[d]imidazol-2-yl)-2-(4-methoxyphenyl)ethyl)-3-((R)-2-hydroxy-2-phenylethyl)urea] | 37 nM
16 | COc1ccc(C[C@@H](NC(=O)NCc2cc(Cl)ccc2Cl)c2nc3ccccc3[nH]2)cc1 [Example 303, (R)-1-(1-(1H-Benzo[d]imidazol-2-yl)-2-(4-methoxyphenyl)ethyl)-3-(2,5-dichlorobenzyl)urea] | 426 nM
17 | COc1ccc(CC(NC(=O)NC2CCCC2)c2nc3ccccc3[nH]2)cc1F (stereo not drawn) [Example 175, 1-(1-(1H-Benzo[d]imidazol-2-yl)-2-(3-fluoro-4-methoxyphenyl)ethyl)-3-cyclopentylurea] | 209 nM
18 | COc1ccc(CC(NC(=O)N[C@H]2CC[C@](C)(O)CC2)c2nc3ccccc3[nH]2)c(F)c1F (mixture of isomers) [Example 252, 1-(1-(1H-Benzo[d]imidazol-2-yl)-2-(2,3-difluoro-4-methoxyphenyl)ethyl)-3-(trans-4-hydroxy-4-methylcyclohexyl)urea] | 17 nM
19 | COc1ccc(C[C@@H](NC(=O)NC2(c3ccccc3Cl)CC2)c2nc3ccccc3[nH]2)cc1 [Example 389, (R)-1-(1-(1H-Benzo[d]imidazol-2-yl)-2-(4-methoxyphenyl)ethyl)-3-(1-(2-chlorophenyl)cyclopropyl)urea] | 1170 nM

Target: T2, ALXR (Homo sapiens, UniProt P25090)
T2 sequence (P25090 1-351): T1 sequence (P25090 1-351)
Test: not given
Settings: cited from earlier work

Row | Molecule | binding to ALXR
20 | CCCCC[C@H](O)/C=C/C=C\C=C\C=C\[C@@H](O)[C@@H](O)CCCC(=O)O [Lipoxin A4, lipoxin A4] | high affinity

Tested on: human fibroblast-like synoviocytes
Test: not given
Settings: cited from earlier work

Row | Molecule | IL-6 expression
21 | CCCCC[C@H](O)/C=C/C=C\C=C\C=C\[C@@H](O)[C@@H](O)CCCC(=O)O [Lipoxin A4, lipoxin A4] | inhibited IL-6 expression

Tested on: collagen-induced arthritis
Test: not given
Settings: in vivo; cited from earlier work

Row | Molecule | severity of collagen-induced arthritis
22 | COC(=O)CCC[C@H](O)[C@H](O)CO [BML-111] | reduced the severity of collagen-induced arthritis

Tested on: dry corneal surface
Test: not given
Settings: topical treatment; cited from earlier work

Row | Molecule | re-epithelization and inflammation of the dry corneal surface
23 | CCCCC[C@H](O)/C=C/C=C\C=C\C=C\[C@@H](O)[C@@H](O)CCCC(=O)O [Lipoxin A4, lipoxin A4] | increases re-epithelization and decreases inflammation of the dry corneal surface

Tested on: models of Alzheimer's Disease
Test: not given
Settings: cited from earlier work

Row | Molecule | neuroprotection
24 | humanin: high-affinity ligand for FPR2, neuroprotective in models of Alzheimer's Disease (MAPRGFSCLLLLTSEIDLPVKRRA; Humanin; UniProt Q8IVG9 1-24, looked up) | neuroprotective
